“And” between values parts separate entries of the source, which are not always exact repeats. Equal values may be shown once.
System: thromboxane A2 challenged PAH-minipig
Assay: Haemodynamics in the anesthetized thromboxane challenged minipig, intratracheal dry powder (PAP, BP)
Format: in vivo, Göttingen Minipigs
Conditions: 375 μg/kg i.t.
Description: Healthy Göttingen Minipigs® Ellegaard (Ellegaard, Denmark) of both sexes and having a weight of 2-6 kg were used. The animals were sedated by i.m. administration of about 25 mg/kg ketamine and about 10 mg/kg azaperone. Anaesthesia was initiated by i.v. administration of about 2 mg/kg ketamine and about 0.3 mg/kg midazolam. Maintenance of anaesthesia was by i.v. administration of about 7.5-30 mg/kg/h ketamine and about 1-4 mg/kg/h midazolam (rate of infusion 1-4 ml/kg/h) and about 150 μg/kg/h pancuronium bromide (for example Pancuronium-Actavis). After intubation, the animals were ventilated by the ventilator at a constant respiratory volume (10-12 ml/kg, 35 breaths/min; Avea®, Viasys Healthcare, USA, or Engström Carestation, GE Healthcare, Freiburg, Germany) such that an end-tidal CO2 concentration of about 5% was achieved. Ventilation was performed with room air, enriched with about 40% oxygen (normoxia). For the measurement of the haemodynamic parameters such as pulmonary arterial pressure (PAP), blood pressure (BP) and heart rate (HR), catheters were inserted into the carotid artery to measure the blood pressure, and a Swan-Ganz® catheter was introduced in a flow-directed manner via the jugular vein into the pulmonary artery. The haemodynamic signals were recorded and evaluated by means of pressure transducers (Combitransducer, B. Braun, Melsungen, Germany)/amplifiers and Ponemah® as data acquisition software.
As reference pure Lactose vehicle was applied in the beginning of each experiment.

Question: What does the source list for `O.O=C(O)c1ccc(CCN(CCc2ccccc2OCc2ccc(-c3ccc(C(F)(F)F)cc3)cc2Cl)[C@H]2CCCc3nc(C(=O)O)ccc32)cc1.O=C(O)c1ccc(CCN(CCc2ccccc2OCc2ccc(-c3ccc(C(F)(F)F)cc3)cc2Cl)[C@H]2CCCc3nc(C(=O)O)ccc32)cc1` [example 6a, (5S)—{[2-(4-Carboxyphenyl)ethyl][2-(2-{[3-chloro-4′-(trifluoromethyl)biphenyl-4-yl]methoxy}phenyl)-ethyl]amino}-5,6,7,8-tetrahydroquinoline-2-carboxylic acid semihydrate]?
Answer: PAP, % changes vs. prevalues (time 160 min): 59.9% and 77.1% and 73.1%; BP (mean) (time 170 min): 95 mmHg and 79 mmHg; BP, % changes vs. prevalues (time 170 min): 95.6% and 99.7% and 107.4%; PAP(mean) (time 170 min): 24.0 mmHg and 32.4 mmHg and 29.9 mmHg; PAP, % changes vs. prevalues (time 170 min): 58.6% and 76.7% and 72.3%; BP (mean) (time 180 min): 94 mmHg and 79 mmHg; BP, % changes vs. prevalues (time 180 min): 94.6% and 99.7% and 106.3%; PAP(mean) (time 180 min): 23.7 mmHg and 31.9 mmHg and 29.7 mmHg; PAP, % changes vs. prevalues (time 180 min): 58.0% and 75.4% and 71.8%; BP (mean) (time 190 min): 94 mmHg and 85 mmHg and 93 mmHg; BP, % changes vs. prevalues (time 190 min): 94.6% and 108.5% and 105.2%; PAP(mean) (time 190 min): 24.4 mmHg and 32.4 mmHg and 29.2 mmHg; PAP, % changes vs. prevalues (time 190 min): 59.5% and 78.4% and 70.7%; BP (mean) (time 200 min): 92 mmHg and 85 mmHg; BP, % changes vs. prevalues (time 200 min): 92.6% and 107.3% and 104.0%; PAP(mean) (time 200 min): 24.8 mmHg and 32.4 mmHg and 29.4 mmHg; PAP, % changes vs. prevalues (time 200 min): 60.5% and 76.8% and 71.1%; BP (mean) (time 210 min): 90 mmHg and 81 mmHg and 91 mmHg; BP, % changes vs. prevalues (time 210 min): 90.6% and 102.2% and 102.9%; PAP(mean) (time 210 min): 24.8 mmHg and 31.9 mmHg and 29.2 mmHg; PAP, % changes vs. prevalues (time 210 min): 60.6% and 75.5% and 70.8%; BP (mean) (time 220 min): 89 mmHg and 79 mmHg; BP, % changes vs. prevalues (time 220 min): 89.6% and 99.7% and 100.6%; PAP(mean) (time 220 min): 24.7 mmHg and 31.7 mmHg and 29.1 mmHg; PAP, % changes vs. prevalues (time 220 min): 60.3% and 75.1% and 70.3%; BP (mean) (time 230 min): 87 mmHg and 78 mmHg and 89 mmHg; BP, % changes vs. prevalues (time 230 min): 87.6% and 98.4% and 100.6%; PAP(mean) (time 230 min): 24.0 mmHg and 31.3 mmHg and 28.6 mmHg; PAP, % changes vs. prevalues (time 230 min): 58.7% and 74.1% and 69.1%; BP (mean) (time 240 min): 87 mmHg and 77 mmHg; BP, % changes vs. prevalues (time 240 min): 87.6% and 97.2% and 98.4%; PAP(mean) (time 240 min): 24.1 mmHg and 31.3 mmHg and 28.1 mmHg; PAP, % changes vs. prevalues (time 240 min): 58.9% and 74.2% and 68.0%; BP (mean) (time 250 min): 85 mmHg and 76 mmHg; BP, % changes vs. prevalues (time 250 min): 85.5% and 95.9% and 96.1%; PAP(mean) (time 250 min): 24.2 mmHg and 30.7 mmHg and 28.1 mmHg; PAP, % changes vs. prevalues (time 250 min): 59.0% and 72.7% and 67.9%; BP (mean) (time 260 min): 85 mmHg and 76 mmHg and 84 mmHg; BP, % changes vs. prevalues (time 260 min): 85.5% and 95.9% and 95.0%; PAP(mean) (time 260 min): 24.1 mmHg and 30.6 mmHg and 28.1 mmHg; PAP, % changes vs. prevalues (time 260 min): 58.8% and 72.5% and 68.0%; BP (mean) (time 270 min): 85 mmHg and 76 mmHg and 87 mmHg; BP, % changes vs. prevalues (time 270 min): 85.5% and 95.9% and 98.4%; PAP(mean) (time 270 min): 24.4 mmHg and 30.6 mmHg and 27.8 mmHg; PAP, % changes vs. prevalues (time 270 min): 59.6% and 72.4% and 67.3%; BP (mean) (time 280 min): 85 mmHg and 75 mmHg and 84 mmHg; BP, % changes vs. prevalues (time 280 min): 85.5% and 94.6% and 95.0%; PAP(mean) (time 280 min): 24.3 mmHg and 30.7 mmHg and 28.0 mmHg; PAP, % changes vs. prevalues (time 280 min): 59.3% and 72.6% and 67.8%; BP (mean) (time 290 min): 84 mmHg and 75 mmHg and 83 mmHg; BP, % changes vs. prevalues (time 290 min): 84.5% and 94.6% and 93.9%; PAP(mean) (time 290 min): 24.1 mmHg and 30.7 mmHg and 27.6 mmHg; PAP, % changes vs. prevalues (time 290 min): 58.8% and 72.6% and 66.7%; BP (mean) (time 300 min): 83 mmHg and 77 mmHg and 82 mmHg; BP, % changes vs. prevalues (time 300 min): 83.5% and 97.2% and 92.7%; PAP(mean) (time 300 min): 23.7 mmHg and 30.5 mmHg and 27.7 mmHg; PAP, % changes vs. prevalues (time 300 min): 57.9% and 72.2% and 67.1%

From patent US12202805B2, “Process for preparing (5S)-{[2-(4-carboxyphenyl)ethyl] |2-(2-{|3-chloro-4'-(trifluoromethyl)biphenyl-4-yl]methoxy}phenyl)ethyl]aminol-5,6,7,8-tetrahydroquinoline-2-carboxylic acid and its crystalline forms for use as pharmaceutically active compound” (Bayer Aktiengesellschaft, priority 2021, dated 2025)
